Patent US6387881B1, “Inhibitors and substrates of thrombin” (priority 1992, dated 2002)
Where “and” joins values, the source holds several entries; their conditions need not be identical. Equal entries are not always repeated. Where two headings read alike, the source gives them in different places.

What was measured:
human α-thrombin = human α-thrombin (Homo sapiens, UniProt P00734); assay: biochemical; assay type: biochemical
Procedure: The inhibition of human α-thrombin was determined by the inhibition of the enzyme catalyzed hydrolysis of three different concentrations of the chromogenic substrate S-2238.
200 μl of sample or buffer and 50 μl of S-2238 were incubated at 37° C. for 1 min and 50 μl of human α-thrombin (0.25 NIHu/ml) was added. The initial rate of inhibited and uninhibited reactions were recorded at 405 nm. The increase in optical density was plotted according to the method of Lineweaver and Burke. The Km and apparent Km were determined and Ki was calculated using the relationship: [formula]

[1] = target: T1, bovine thrombin in citrated normal human plasma (Bos taurus, UniProt P00735); assay: Plasma thrombin time (TT), in vitro; assay type: biochemical; conditions: inhibitor concentration that caused a doubling of the thrombin time
T1 construct: freshly prepared bovine thrombin (5 NIHu/ml saline)
Procedure: (§1) A volume of 150 μl of citrated normal human plasma and 20 μl of buffer or sample were warmed at 37° C. for 1 min. Coagulation was started by adding 150 ul of freshly prepared bovine thrombin (5 NIHu/ml saline) and the coagulation time was recorded on a coagulometer.
(§2) A phosphate buffer, pH 7.8, containing 0.1% bovine serum albumine and 0.02% sodium azide was used. The samples were dissolved in DMSO and diluted with the buffer. When no inhibitor was used DMSO was added to the buffer to the same concentration as that used in the samples. The inhibitor concentrations were plotted against the thrombin times in a semilogarithmic graph from which the inhibitor concentration that caused a doubling (40 sec) of the thrombin time was determined.

[2] = system: bovine thrombin in plasma samples; assay: Ex-vivo TT; assay type: in vivo, New Zealand white rabbits; set-up: key: thrombin (coagulation) time in seconds; conditions: 1 mg/kg i.v. bolus, rabbit
Procedure: as §1, §2
(§3) Data was obtained as for in-vitro tests, but using plasma samples obtained at 0, 1, 10, 30 and 60 minutes after dosing of 1 mg/kg, i.v. bolus injection in a marginal ear vein in New Zealand white rabbits, which were anaesthetized from a canula in the carotid artery. [drawing 18]

plasma samples = assay: Ex-vivo APTT; assay type: in vivo, New Zealand white rabbits; set-up: unit not given here; conditions: 1 mg/kg i.v. bolus, rabbit
Procedure: A volume of 150 μl of citrated (3.2%) normal human plasma was incubated at 37° C. with sample (20 μl) or buffer (20 μl, control) for 1 min. To the solution was added reconstituted “AUTOMATED APTT” (available from Organon Teknika, 0.1 ml). Each solution was activated at 37° C. for 5 min.
After activation, calcium chloride (0.1 ml, 0.025M, prewarmed at 37° C.) was added and clot detection was timed using a “semiautomated coagulometer” (Nach, Schnicter und Gross).
as §3

[3] = IC50 with and without incubation (enzyme not given); assay type: biochemical
[4] = system: 111indium-labelled platelets; assay: Deposition of 111indium-labelled platelets after intravenous dose; assay type: in vivo, New Zealand white rabbits; conditions: 1 mg/kg i.v. dose
From the text: M. Hero, K. D. Butler, C. […] Peripheral blood pressure was monitored by a pressure sensor in the carotid artery.

[5] = Peripheral blood pressure after intravenous dose; assay type: in vivo, New Zealand white rabbits; conditions: 1 mg/kg i.v. dose
From the text: […] R. May, C. M. Hero, K. D. Butler, C. P. Page, JOURNAL OF PHARMACOLOGICAL METHODS, 24, pp 1-35, 1990. Peripheral blood pressure was monitored by a pressure sensor in the carotid artery.

[6] = human α-thrombin, S-2238, 37° C., read-out: Ki
[7] = no incubation, read-out: IC50 No Incubations
[8] = with incubation, read-out: IC50 Inc.

## N=C(N)NCCCC(NC(=O)C1CCCN1C(=O)C(N)Cc1ccc2ccccc2c1)C(=O)CCC(=O)N1CCCCC1 (mixture of isomers) [Compound 14, D,L-β-Nal-Pro-Arg--k--Gly-Pip]
Human α-thrombin; read-out: Ki
  Ki: 11.6 µM
[1]
  TT: 90.0 µM

## N=C(N)NCCCC(NC(=O)C1CCCN1C(=O)C(N)C1c2ccccc2-c2ccccc21)C(=O)CCC(=O)N1CCCCC1 [Compound 8, D-Fgl-Pro-Arg--k--Gly-Pip]
[1]
  TT: 50.0 µM

## CCCCCC(NC(=O)[C@@H]1CCCN1C(=O)[C@@H](Cc1ccccc1)NC(=O)OCc1ccccc1)B1OC(C)(C)C(C)(C)O1 (stereo partly drawn) [Compound 11, Z-D-Phe-Pro-BoroPgl-OPinac]
[2]; time 0 min
  EX-VIVO T.T.: 30 and 24.5 and 26
[2]; time 1 min
  EX-VIVO T.T.: >300 and >200
[2]; time 10 min
  EX-VIVO T.T.: >300 and >200
Plasma samples; time 0 min
  EX-VIVO A.P.T.T.: 46.5 and 26.4
Plasma samples; time 60 min
  EX-VIVO A.P.T.T.: 53.0 and 38.4

## CC(C)(C)OC(=O)NC(C(=O)N1CCCC1C(=O)NC(c1ccccc1)P(=O)(O)O)C(c1ccccc1)c1ccccc1 [Compound 15, Boc-D,L-Dpa-Pro-Pgl^P(OH)2]
Human α-thrombin; [6]
  Ki: 59 µM
[3]; [7]
  IC50: 5.28 µM
[3]; [8]
  IC50: 0.0836 µM

## NC(C(=O)N1CCCC1C(=O)NC(c1ccccc1)P(=O)(O)O)C(c1ccccc1)c1ccccc1 [Compound 16, D,L-Dpa-Pro-Pgl^P(OH)2]
Human α-thrombin; [6]
  Ki: 0.223 µM
[3]; [7]
  IC50: 5.16 µM
[3]; [8]
  IC50: 0.0817 µM

## O=C(NC(C(=O)N1CCCC1C(=O)NC(c1ccccc1)P(=O)(Oc1ccccc1)Oc1ccccc1)C(c1ccccc1)c1ccccc1)OCc1ccccc1 [Compound 17, Z-D-Dpa-Pro-Pgl^P(OPh)2]
Human α-thrombin; [6]
  Ki: 8.46 µM

## CCCCCC(NC(=O)[C@@H]1CCCN1C(=O)[C@H](N)C(c1ccccc1)c1ccccc1)P(=O)(O)O (stereo partly drawn) [Compound 18, D-Dpa-Pro-Pgl^P(OH)2]
Human α-thrombin; [6]
  Ki: 15.1 µM
[3]; [7]
  IC50: 148 µM
[3]; [8]
  IC50: 0.751 µM

## CCCCCC(NC(=O)C1CCCN1C(=O)C(Cc1ccccc1)NC(=O)OCc1ccccc1)P(=O)(Oc1ccccc1)Oc1ccccc1 [Compound 19, Z-D-Phe-Pro-Pgl^P(OPh)2]
Human α-thrombin
  Ki: > 31 µM

## CCCCCC(NC(=O)C1CCCN1C(=O)C(N)Cc1ccccc1)P(=O)(Oc1ccccc1)Oc1ccccc1 [Compound 20, D-Phe-Pro-Pgl^P(OPh)2]
Human α-thrombin
  Ki: 0.109 µM
[4]
  PLATELET ACCUMULATION (% OF NORMAL) LEG: NONE
  PLATELET ACCUMULATION (% OF NORMAL) LUNG: NONE
[5]
  BLOOD PRESSURE Δ% of NORM: NONE

## CCCCCC(NC(=O)[C@@H]1CCCN1C(=O)[C@H](N)Cc1ccccc1)P(=O)(O)O (stereo partly drawn) [Compound 21, D-Phe-Pro-Pgl^P(OH)2]
Human α-thrombin; read-out: Ki
  Ki: > 98 µM
[3]; [7]
  IC50: > 137 µM
[3]; [8]
  IC50: 4.35 µM
